Experimental data published in patent US20080200438A1, “Treatment of Autoimmune Diseases” (priority 2005, published 2008).
Entries after “also recorded” stand apart in the source; their conditions may differ.

Assays:
[1] = tested on: acute experimental autoimmune encephalomyelitis (EAE); experiment: Acute EAE model; assay type: in vivo, Lewis rat; conditions: for Prevention of disease symptoms in the acute EAE model: doses between 0.1 and 10 mg/kg/day, oral
chronic-relapsing EAE = experiment: Chronic-relapsing EAE model; assay type: in vivo, Lewis rat; conditions: 0.3 mg/kg/day orally, day 16 to day 31
Excerpt: Animal models: The monophasic model of acute experimental autoimmune encephalomyelitis (EAE) and the chronic relapsing form are considered to be instructive animal models for multiple sclerosis. EAE can be induced in susceptible animals by a single injection of CNS tissue or MBP emulsified in complete Freund's adjuvant into the base of the tail. A monophasic acute paralytic disease appears in susceptible rat strains, e.g., Lewis, Wistar rat, about 8-11 days post-sensitization. The symptomatic rats recover within the following 7 days, but in other species the attack is usually lethal. In the chronic relapsing disease models rats undergo one to three relapses following the acute disease bout. These relapses are usually from very mild to severe and are observed within 20-100 days after the acute bout.
Chronic-relapsing EAE is induced by injecting an emulsion of guinea pig spinal cord in complete Freund's adjuvant in the hind paws of Lewis rats. Six to ten rats per group are used and somatic symptoms are judged daily on a scale of 0-3. The number of diseased animals as well as the time of onset of the disease is recorded. […] The statistical significance between treated and untreated groups is analyzed on each day using ANOVA analysis of variance followed by Dunn's multiple comparisons. […]

chronic EAE = experiment: Chronic EAE model; assay type: in vivo, DA rat
Protocol: Induction of AEA in DA rat is induced as described by Lorentzen et al, 1995, J. Neuroimmunol.; 63(2):193-205 and Adelmann et al, 1995, J. Neuroimmunol.; 63(1):17-27. Briefly, rats are immunized with a mixture of DA rat brain and DA rat and bovine spinal cord homogenate supplemented with 0.02 μg/ml purified recombinant rat MOG protein. The mixture is homogenized and then mixed 1:1 with complete Freund's adjuvant containing 4 mg/ml M. tuberculosis H37RA(CFA). The resultant mixture is then homogenized using a Polytron PT3100 homogenizer (Kinematica, Lucerne, Switzerland). Rats are then injected subcutaneously at the dorsal root of tail with a single injection of 200 μl antigen/CFA. The resultant chronic disease is evaluated using numeric scale of progressive paralysis: 0, no paralysis; 1, loss of tail tonicity; 2, hindlimb weakening or ataxia; 3, hindlimb paralysis with or without urinary incontinence; 4, hindlimb and forelimb paralysis; 5, moribund or death. Clinical scores are evaluated on a daily basis, while body weight is determined every other day. […] Treatment of animals begins at the peak clinical disease on the 12th day and continues daily the 33rd day post-immunization (total 22 days). The test compound or vehicle (for the control groups) is administered orally daily.

[2] = 1 mg/kg p.o. daily days 0-13, female Lewis rats
[3] = 0.1 mg/kg p.o. daily days 0-13, female Lewis rats
[4] = 0.3 mg/kg p.o. daily days 0-13, female Lewis rats

| Structure (SMILES) | First symptoms on day [1, 2] [days] | Number of Animals with EAE/total Day 12 [1, 2] | Number of Animals with EAE/total Day 14 [1, 2] | Prevention of disease symptoms in the acute EAE model [1] | First symptoms on day [1, 3] [days] | Number of Animals with EAE/total Day 12 [1, 3] | Number of Animals with EAE/total Day 14 [1, 3] | First symptoms on day [1, 4] [days] | Number of Animals with EAE/total Day 12 [1, 4] | Number of Animals with EAE/total Day 14 [1, 4] | Prevention of clinical relapses in the chronic relapsing EAE model (chronic-relapsing EAE) | Inhibition of chronic EAE (chronic EAE; 0.3, 0.1 or 0.03 mg/kg/d orally, day 12 to day 33 post-immunization) | Clinical disease compared to vehicle group (chronic EAE; each dose (0.3, 0.1, 0.03 mg/kg/d orally), statistical analysis) |
| --- | --- | --- | --- | --- | --- | --- | --- | --- | --- | --- | --- | --- | --- |
| C[C@](N)(CO)CCc1ccc(Sc2cccc(OCc3ccccc3)c2)cc1Cl [Compound B, (R)-2-amino-4-[4-(3-benzyloxyphenylthio)-2-chlorophenyl]-2-methylbutane-1-ol] | >14 | 0/5 | 0/5 | lead to prevention of disease symptoms | – | – | – | – | – | – | – | – | – |
| NC(CO)(CO)CCc1ccc(Sc2cccc(OCc3ccccc3)c2)cc1Cl [Compound A, 2-amino-2-[4-(3-benzyloxyphenylthio)-2-chlorophenyl]ethyl-propane-1,3-diol] | >14 | 0/5 | 0/5 | lead to prevention of disease symptoms; also recorded: prevents disease symptoms | 9 | 0/5 | 3/4 | 14 | 0/5 | 1/5 | prevents clinical relapses | effectively inhibits chronic EAE | significant reduction in clinical disease |
| CC[C@](N)(CO)CCc1ccc(Sc2cccc(OCc3ccccc3)c2)cc1Cl [Compound C, (R)-2-amino-4-[4-(3-benzyloxyphenylthio)-2-chlorophenyl]-2-ethylbutane-1-ol] | >14 | 0/5 | 0/5 | lead to prevention of disease symptoms | – | – | – | – | – | – | – | – | – |
